Measurements: BindingDB's records for doi:10.1021/bi1017182 (University of California Riverside, 2011)
pKd: −log10 of the molar value.

Target: T1, Carbon monoxide dehydrogenase small chain (Afipia carboxidovorans (strain ATCC 49405 / DSM 1227 / KCTC 32145 / OM5), UniProt P19921)
T1 sequence (P19921 whole entry): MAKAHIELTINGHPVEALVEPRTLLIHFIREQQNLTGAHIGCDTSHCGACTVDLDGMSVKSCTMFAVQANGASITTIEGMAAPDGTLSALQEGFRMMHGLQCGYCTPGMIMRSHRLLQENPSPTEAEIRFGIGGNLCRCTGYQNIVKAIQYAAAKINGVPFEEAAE
Assay: Inhibition Assay
Source text: Inhibition of CODH by Diphenyliodomium chloride. Inactivation of the FAD cofactor of CODH was accomplished by covalent modification of the flavin with diphenyliodonium chloride using a modification of the procedure of Chakraborty and Massey.

Structure (SMILES): O=C1C=CC(=O)C=C1 [1,4-Benzoquinone]
- pKd: 4.32

Structure (SMILES): O=C1C=CC(=O)c2ccccc21 [1,4-dihydronaphthalene-1,4-dione]
- pKd: 3.85
